# Measured values published in ChEMBL document CHEMBL1142471, “Antioxidant capacity of human blood plasma and human urine: simultaneous evaluation of the ORAC index and ascorbic acid concentration employing pyrogallol red as probe” (Bioorg Med Chem, 2008).
# Assays:
# Assay type in all cases: functional
# [1] = Antioxidant activity assessed as oxygen radical absorbance capacity index value by fluorescein protection assay
# [2] = Antioxidant activity assessed as oxygen radical absorbance capacity index value at 5 uM by pyrogallol red protection assay
# [3] = Antioxidant activity assessed as oxygen radical absorbance capacity index value by pyrogallol red protection assay
Structure (SMILES),Activity [1],Activity [2],Activity [3]
N[C@@H](CCC(=O)N[C@@H](CS)C(=O)NCC(=O)O)C(=O)O,0.62,–,–
O=C1O[C@H]([C@@H](O)CO)C(O)=C1O,0.95,9.7,–
Oc1nc(O)c2nc(O)[nH]c2n1,0.72,–,0.02
